The results in this text go back to US10428080B2, “TBK/IKK inhibitor compounds and uses thereof” (Merck Patent GmbH, priority 2015, dated 2019).

Test [1] addresses T1, TBK1 (Homo sapiens, UniProt Q9UHD2).
T1 sequence (Q9UHD2 1-729): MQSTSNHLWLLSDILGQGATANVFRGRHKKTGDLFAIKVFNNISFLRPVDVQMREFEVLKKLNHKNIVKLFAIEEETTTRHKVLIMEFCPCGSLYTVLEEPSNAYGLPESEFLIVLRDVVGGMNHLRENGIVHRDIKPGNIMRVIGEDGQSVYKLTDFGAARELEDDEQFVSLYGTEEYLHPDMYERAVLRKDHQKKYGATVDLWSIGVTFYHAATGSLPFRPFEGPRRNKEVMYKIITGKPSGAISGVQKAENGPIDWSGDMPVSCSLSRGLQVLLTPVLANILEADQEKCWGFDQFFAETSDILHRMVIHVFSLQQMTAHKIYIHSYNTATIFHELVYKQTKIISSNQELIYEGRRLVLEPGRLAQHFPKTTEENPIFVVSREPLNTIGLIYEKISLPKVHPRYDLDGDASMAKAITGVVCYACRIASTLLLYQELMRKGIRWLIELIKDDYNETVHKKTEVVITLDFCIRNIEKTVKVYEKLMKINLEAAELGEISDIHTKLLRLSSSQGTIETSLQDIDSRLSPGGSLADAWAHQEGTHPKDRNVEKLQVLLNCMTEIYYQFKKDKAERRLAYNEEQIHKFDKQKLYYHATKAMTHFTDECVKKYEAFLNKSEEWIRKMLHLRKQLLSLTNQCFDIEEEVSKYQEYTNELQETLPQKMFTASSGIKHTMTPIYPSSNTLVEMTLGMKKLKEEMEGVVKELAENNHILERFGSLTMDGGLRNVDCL
Put plainly: TBK Biochemical Assay. Conditions: read-out: TBK1 IC50. Summed up: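 Caliper LabChip mobility-shift readout of substrate and product after 90 min of TBK1 reaction at 25° C and stop-buffer addition. Compounds tested in 1:4 serial dilution over 10 points from 30 uM final at 1% DMSO; staurosporine 10 uM final defines full inhibition.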

In test [2] the target is T2, IKKε (Homo sapiens, UniProt Q14164).
T2 sequence (Q14164 1-716): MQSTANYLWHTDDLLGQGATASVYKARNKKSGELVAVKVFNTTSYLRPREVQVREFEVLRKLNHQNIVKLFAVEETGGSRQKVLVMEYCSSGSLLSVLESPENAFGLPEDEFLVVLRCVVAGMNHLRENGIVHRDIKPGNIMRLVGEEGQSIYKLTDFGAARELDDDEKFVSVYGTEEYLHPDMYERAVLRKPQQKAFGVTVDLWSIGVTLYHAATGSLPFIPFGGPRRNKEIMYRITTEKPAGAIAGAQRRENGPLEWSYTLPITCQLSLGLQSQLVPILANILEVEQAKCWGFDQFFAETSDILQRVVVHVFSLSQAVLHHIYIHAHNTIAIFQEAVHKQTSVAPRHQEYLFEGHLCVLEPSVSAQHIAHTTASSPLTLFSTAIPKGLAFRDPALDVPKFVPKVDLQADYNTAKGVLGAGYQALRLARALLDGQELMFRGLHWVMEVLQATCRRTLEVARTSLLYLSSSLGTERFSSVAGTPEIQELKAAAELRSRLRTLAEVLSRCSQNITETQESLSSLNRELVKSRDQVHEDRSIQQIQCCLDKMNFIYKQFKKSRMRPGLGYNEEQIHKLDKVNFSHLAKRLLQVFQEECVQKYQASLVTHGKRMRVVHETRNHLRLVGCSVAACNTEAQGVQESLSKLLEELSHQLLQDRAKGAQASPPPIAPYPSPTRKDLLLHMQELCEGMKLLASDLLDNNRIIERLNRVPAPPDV
Put plainly: IKKe Biochemical Assay. The settings on record: read-out: IKKε IC50. Summed up: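 Activity was measured as mobility-shift separation of phosphorylated from unphosphorylated substrate on a LabChip EZ Reader. Compound was titrated from 30 uM final in 10 points, 1:4 steps, with 1% DMSO, and enzyme plus substrate reacted 90 min at 25° C before stop buffer. Control wells held 10 uM staurosporine.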

Usually IC50 stands for the midpoint of a concentration-inhibition curve. `COc1cc(C(=O)N2C3CCC2COC3)ccc1-c1cc2nccc(-c3ccc(NC4CCOCC4)c(C#N)c3)c2o1` [Compound 94, 5-{2-[2-Methoxy-4-(3-oxa-8-aza-bicyclo[3.2.1]octane-8-carbonyl)-phenyl]-furo[3,2-b]pyridin-7-yl}-2-(tetrahydro-pyran-4-ylamino)-benzonitrile]: the IC50 in test [1] and in test [2] was less than 100 nM in each case.

Regarding `COc1cc(C(=O)N2CC[C@@H](O)C2)ccc1-c1cc2nccc(-c3ccc(NC4CCOCC4)c(C#N)c3)c2o1` [Compound 95, 5-{2-[4-((R)-3-Hydroxy-pyrrolidine-1-carbonyl)-2-methoxy-phenyl]-furo[3,2-b]pyridin-7-yl}-2-(tetrahydro-pyran-4-ylamino)-benzonitrile], the IC50 in test [1] and in test [2] was less than 100 nM in each case.

Regarding `COc1cc(C(=O)N2CC3CCC(O)C3C2)ccc1-c1cc2nccc(-c3ccc(NC4CCOCC4)c(C#N)c3)c2o1` (stereo not shown) [Compound 96], the IC50 in test [1] and in test [2] was less than 100 nM throughout.

As to `COc1cc(C(=O)N(C)C)ccc1-c1cc2nccc(-c3ccc(OC4CCN(C)CC4(F)F)c(C#N)c3)c2o1` (stereo not shown) [Compound 97, 4-{7-[3-Cyano-4-(3,3-difluoro-1-methyl-piperidin-4-yloxy)-phenyl]-furo[3,2-b]pyridin-2-yl}-3-methoxy-N,N-dimethyl-benzamide], the IC50 in test [1] and in test [2] was less than 100 nM each time.

For the compound `COc1cc(C(=O)N2CC3CCCC3C2)ccc1-c1cc2nccc(-c3ccc(OC4CCOCC4)c(C#N)c3)c2o1` (stereo not shown) [Compound 99, 5-{2-[4-(Hexahydro-cyclopenta[c]pyrrole-2-carbonyl)-2-methoxy-phenyl]-furo[3,2-b]pyridin-7-yl}-2-(tetrahydro-pyran-4-yloxy)-benzonitrile], the half-inhibitory concentration (IC50) in test [1] and in test [2] was less than 100 nM in each case.

On to `CNC(=O)c1ccc(-c2cc3nccc(-c4ccc(OC5CCOCC5)c(C#N)c4)c3o2)c(OC)c1` [Compound 100, 4-{7-[3-Cyano-4-(tetrahydro-pyran-4-yloxy)-phenyl]-furo[3,2-b]pyridin-2-yl}-3-methoxy-N-methyl-benzamide], for which the IC50 in test [1] and in test [2] was less than 100 nM in each case.

Turning to `COc1cc(C(=O)NC2CCOCC2F)ccc1-c1cc2nccc(-c3ccc(OC4CCOCC4)c(C#N)c3)c2o1` (stereo not shown) [Compound 102, 4-{7-[3-Cyano-4-(tetrahydro-pyran-4-yloxy)-phenyl]-furo[3,2-b]pyridin-2-yl}-N-(3-fluoro-tetrahydro-pyran-4-yl)-3-methoxy-benzamide], the IC50 in test [1] and in test [2] was less than 100 nM throughout.

Consider `COc1cc(C(=O)N2CC[C@H](O)C2)ccc1-c1cc2nccc(-c3ccc(NC4CCOCC4)c(C#N)c3)c2o1` [Compound 103, 5-{2-[4-((S)-3-Hydroxy-pyrrolidine-1-carbonyl)-2-methoxy-phenyl]-furo[3,2-b]pyridin-7-yl}-2-(tetrahydro-pyran-4-ylamino)-benzonitrile], for which the half-inhibitory concentration (IC50) in test [1] and in test [2] was less than 100 nM in each case.

For the compound `N#Cc1cc(-c2ccnc3cc(-c4ccc(C(=O)O)cc4)oc23)ccc1N1CC[C@H](F)C1` [Compound 107, 4-{7-[3-Cyano-4-((S)-3-fluoro-pyrrolidin-1-yl)-phenyl]-furo[3,2-b]pyridin-2-yl}-benzoic acid], the concentration for half-maximal inhibition (IC50) in test [1] and in test [2] was less than 100 nM each time.

With `COc1cc(C(=O)N(C)C)ccc1-c1cc2nccc(-c3ccc(OC4(C(F)(F)F)CCNC4)c(C#N)c3)c2o1` (stereo not shown) [Compound 113, 4-{7-[3-Cyano-4-(3-trifluoromethyl-pyrrolidin-3-yloxy)-phenyl]-furo[3,2-b]pyridin-2-yl}-3-methoxy-N,N-dimethyl-benzamide], the IC50 in test [1] and in test [2] was less than 100 nM in each case.

Turning to `COc1cc(C(=O)N2CCC3(CCC3)C2)ccc1-c1cc2nccc(-c3ccc(OC4CCOCC4)c(C#N)c3)c2o1` [Compound 114, 5-{2-[4-(6-Aza-spiro[3.4]octane-6-carbonyl)-2-methoxy-phenyl]-furo[3,2-b]pyridin-7-yl}-2-(tetrahydro-pyran-4-yloxy)-benzonitrile], the IC50 in test [1] and in test [2] was less than 100 nM throughout.

Regarding `COc1cc(C(=O)N(C)C)ccc1-c1cc2nccc(-c3ccc(O[C@@H]4CCNC4)c(C#N)c3)c2o1` [Compound 115, 4-{7-[3-Cyano-4-((R)-pyrrolidin-3-yloxy)-phenyl]-furo[3,2-b]pyridin-2-yl}-3-methoxy-N,N-dimethyl-benzamide], the IC50 in test [1] and in test [2] was less than 100 nM throughout.

Turning to `COc1cc(C(=O)N(C)C)ccc1-c1cc2nccc(-c3ccc(O[C@H]4CCNC4)c(C#N)c3)c2o1` [Compound 121, 4-{7-[3-Cyano-4-((S)-pyrrolidin-3-yloxy)-phenyl]-furo[3,2-b]pyridin-2-yl}-3-methoxy-N,N-dimethyl-benzamide], the IC50 in test [1] and in test [2] was less than 100 nM throughout.

For `N#Cc1cc(-c2ccnc3cc(-c4ccc(N)cc4)oc23)ccc1OC1CCOCC1` [Compound 126], the IC50 in test [1] and in test [2] was less than 100 nM in each case.

Regarding `COc1cc(C(=O)N(C)C)ccc1-c1cc2nccc(-c3ccc(OC4CNC4)c(C#N)c3)c2o1` [Compound 128, 4-{7-[4-(Azetidin-3-yloxy)-3-cyano-phenyl]-furo[3,2-b]pyridin-2-yl}-3-methoxy-N,N-dimethyl-benzamide], the IC50 in test [1] and in test [2] was less than 100 nM throughout.

`COc1cc(C(=O)NC2CCOCC2F)ccc1-c1cc2nccc(-c3ccc(NC4CCOCC4)c(C#N)c3)c2o1` (stereo not shown) [Compound 132, 4-{7-[3-Cyano-4-(tetrahydro-pyran-4-ylamino)-phenyl]-furo[3,2-b]pyridin-2-yl}-N-(3-fluoro-tetrahydro-pyran-4-yl)-3-methoxy-benzamide]: the IC50 in test [1] and in test [2] was less than 100 nM in each case.

Turning to `COc1cc(C(=O)N2CC3CCCC3C2)ccc1-c1cc2nccc(-c3ccc(NC4CCOCC4)c(C#N)c3)c2o1` (stereo not shown) [Compound 137, 5-{2-[4-(Hexahydro-cyclopenta[c]pyrrole-2-carbonyl)-2-methoxy-phenyl]-furo[3,2-b]pyridin-7-yl}-2-(tetrahydro-pyran-4-ylamino)-benzonitrile], the IC50 in test [1] and in test [2] was less than 100 nM throughout.

On to `COc1cc(C(=O)N(C)C)ccc1-c1cc2nccc(-c3ccc(O[C@H]4CCCNC4)c(C#N)c3)c2o1` [Compound 142, 4-{7-[3-Cyano-4-((S)-piperidin-3-yloxy)-phenyl]-furo[3,2-b]pyridin-2-yl}-3-methoxy-N,N-dimethyl-benzamide], for which the IC50 in test [1] and in test [2] was less than 100 nM each time.

Turning to `COc1cc(C(=O)N(C)C)ccc1-c1cc2nccc(-c3ccc(OC4CCN(C(C)=O)C4)c(C#N)c3)c2o1` (stereo not shown) [Compound 144, 4-{7-[4-(1-Acetyl-pyrrolidin-3-yloxy)-3-cyano-phenyl]-furo[3,2-b]pyridin-2-yl}-3-methoxy-N,N-dimethyl-benzamide], the IC50 in test [1] and in test [2] was less than 100 nM throughout.

With `COc1cc(C(=O)NC2CCN(C(=O)OC(C)(C)C)C2)ccc1-c1cc2nccc(-c3ccc(NC4CCOCC4)c(C#N)c3)c2o1` (stereo not shown) [Compound 147, 3-(4-{7-[3-Cyano-4-(tetrahydro-pyran-4-ylamino)-phenyl]-furo[3,2-b]pyridin-2-yl}-3-methoxy-benzoylamino)-pyrrolidine-1-carboxylic acid tert-butyl ester], the IC50 in test [1] and in test [2] was less than 100 nM throughout.
